# Test results: patent US20200338044A1 (PCI Biotech AS, priority 2016, published 2020)
# “Also recorded” adds a separate entry of the source.
# What was measured:
# TFK-1 cell line [1] = assay: Cytotoxicity of gemcitabine without PCI, MTT assay; format: cell-based, human
# Excerpt: The cell lines used were TFK-1 and EGI-1, both were obtained from the Department of Cancer Prevention, The Norwegian Radium Hospital, Oslo, Norway. TFK-1 is a human papillary bile duct adenocarcinoma cell line and EGI-1 is a poorly differentiated human bile duct adenocarcinoma cell line. Both cell lines originate from extrahepatic tumours (Saijyo et al., 1995, Tohoku J. Exp. Med., 177:61-71; EGI-1—Cell LINCS Library of Intergrated network-based Cellular Signatures. Available from the website having the URL beginning with “lincs” and ending with “.hms.harvard.edu/db/cells/50181/”), but are quite different both morphologically and physiologically (Xu et al., 2013, Clinical Cancer Research, January 1; 19(1):118-27; Pignochino et al., 2010, BMC Cancer, 10:631).
# The MTT method (tetrazolium dye reduction) was performed 48 h after light exposure with Lumisource. The culture medium was removed and cells were incubated in medium containing 0.25 mg/ml MTT (Sigma) for approximately 3 hours before replacement with 100 μl of 99% dimethylsulfoxide (Sigma). The 96 well plates were set on a shaker for 5 minutes before absorbance was measured at 570 nm with a power wave XS2 (Biotek, VT, USA). Wells without cells incubated with MTT-medium only were used for blank subtraction.
# EGI-1 cell line [2] = assay: Cytotoxicity of gemcitabine without PCI, MTT assay; format: cell-based, human
# Excerpt: The cell lines used were TFK-1 and EGI-1, both were obtained from the Department of Cancer Prevention, The Norwegian Radium Hospital, Oslo, Norway. TFK-1 is a human papillary bile duct adenocarcinoma cell line and EGI-1 is a poorly differentiated human bile duct adenocarcinoma cell line. Both cell lines originate from extrahepatic tumours (Saijyo et al., 1995, Tohoku J. Exp. Med., 177:61-71; EGI-1-Cell LINCS Library of Intergrated network-based Cellular Signatures. Available from the website having the URL beginning with “[…] ending with “.hms.harvard.edu/db/cells/50181/”), but are quite different both morphologically and physiologically (Xu et al., 2013, Clinical Cancer Research, January 1; 19(1):118-27; Pignochino et al., 2010, BMC Cancer, 10:631).
# TFK-1 cell line [3] = assay: PCI with gemcitabine, MTT cytotoxicity assay; format: cell-based, human
# Protocol: (§1) Di (monoethanolammonium) meso-tetraphenyl chlorin disulfonate (TPCS2a/Amphinex®) was provided by PCI Biotech AS (Lysaker, Norway). Amphinex batch number: FAMP 1002. TPCS2a (in 3% polysorbate 80, 2.8% mannitol, 50 mM Tris pH 8.5) stock solution (0.4 mg/ml) was kept at 4° C. in aliquots and light protected. All work with the photosensitizer was performed under subdued light.
# (§2) Illumination of the cells was performed by using Lumisource (PCI Biotech, Oslo). This lamp consists of four standard light tubes (18 W/tube, Osram L 18/67), which emit blue light with a main peak at approximately 435 nm and was used for excitation of TPCS2a. The irradiance emitted from the blue light source was 12 mW/cm^2 and varied less than 10% across the illumination area (765 cm^2). The light source was air-cooled during light exposure to keep the irradiance stable and prevent cells from hyperthermia.
# (§3) Cells were seeded in 96-well or 6-well plates (Nunclon, Nunc, Roskilde, Denmark) and allowed to attach at 37° C. overnight. […]
# (§4) The MTT method (tetrazolium dye reduction) was performed 48 h after light exposure with Lumisource. […] The 96 well plates were set on a shaker for 5 minutes before absorbance was measured at 570 nm with a power wave XS2 (Biotek, VT, USA). […]
# EGI-1 cell line [4] = tested on: EGI-1 cell line
# Protocol: as §1, §2, §3, §4
# TFK-1 cells = assay: Colony formation assay after PCI treatment; format: cell-based, human
# Protocol: Cells (25 000 cells/well) were seeded out in 6 well plates (Nunc) and allowed to adhere overnight and subjected to photochemical treatment described above. The cells were placed in the incubator and the culture medium was replaced with fresh culture medium after 3 days incubation. […] Subsequently, cells were washed in H2O and then dried before being evaluated by visual inspection.
# [5] = tested on: NCI-H460 human lung cancer tumour cells; assay: Tumour growth of subcutaneous NCI-H460 xenografts after PCI with gemcitabine; format: in vivo, Nude (nu/nu) athymic mice; details: for No. of animals alive at the end of study: 10 animals at start
# Protocol: Nude (nu/nu) athymic mice (female, CD-1 nu/nu strain, at least 6 weeks old) were used which have been used extensively to generate human tumour xenografts and remain the experimental method of choice for testing anti-tumour efficacy of new compounds prior to administration in man. The route of administration of the test substances was intravenous. The dose of Amphinex® was 5 mg/kg, based on earlier mouse studies performed by PCI Biotech AS and collaborators.
# There were 6 treatment groups with 10 mice per group. Mice were injected subcutaneously with 7×10^7 cells/mL NCI-H460 tumour cells to allow selection of optimal tumours for inclusion in the study. Tumours of the appropriate size were allocated to the various treatment groups.
# Amphinex® was administered intravenously via a tail vein, using a dose volume of 4 mL/kg.
# Human NCI-H460 non-small cell lung cancer cells (American Type Culture Collection [ATCC], Maryland, USA, or the European Collection of Cell Cultures [ECACC], Porton Down, UK) were harvested from sub-confluent cultures growing in vitro and the number of viable cells determined. Cells were then re-suspended in sterile phosphate buffered saline (PBS) at a concentration of approximately 7×10^7 cells/mL. Nude (nu/nu) athymic mice were injected subcutaneously in the right flank with approximately 7×10^6 NCI-H460 cells in a volume of 0.1 mL. Animals were examined regularly for the appearance of tumours. When measurable tumours had established in the majority of mice, animals were assigned into 6 treatment groups with a target of up to 10 mice per group. Mice received an intravenous injection of Amphinex when the tumours had reached a size such that the tumour volume was approximately in the range 100 to 150 mm^3 72 hours later.
# For tumour illumination each animal was restrained, one at a time, in a metal restraint which allows only the lower flank area, i.e. tumour area plus a 2 mm diameter surrounding area, to be exposed. A 650 nm diode laser (TWI Diode Laser, Quanta System, Italy) was then used to expose the tumour tissue to a light dose of 15 J/cm^2, with a fluence rate of 90 mW/cm^2. Each animal had their tumour exposed to the laser for approximately 167 s, to give the required dose of 15 J/cm^2.
# Tumour size was measured at least twice weekly using digital callipers for up to 4 weeks following illumination or until the tumour size (as specified in the UK Home Office Licence) or other clinical signs necessitated removal of that mouse from the study. Tumour dimensions were recorded (length and width), and tumour volumes calculated using the formula (W^2×L)/2, where W is the […] tumour dimension and L is the longest. Animals were terminated if the tumour size had become excessive or any adverse effects were noted.
# The tumour dimensions measured over the period of the study—length (L, long) and width (W, short) in mm, were recorded and kept as raw data. The mean tumour volumes on the first day of treatment were reported for each group. Calculations of relative tumour volumes and plots of mean tumour growth curves were performed. Body weight data were also obtained.
# [6] = 4 hours exposure, up to 1 mM tested, data not shown
# [7] = gemcitabine 100 nM alone, no PCI
molecule,measurement,setting,value
"Nc1ccn([C@@H]2O[C@H](CO)[C@@H](O)C2(F)F)c(=O)n1 [Gemcitabine, 4-amino-1-(2-deoxy-2,2-difluoro-β-D-erythro-pentofuranosyl)pyrimidin-2(1H)-on]",cytotoxic effect,TFK-1 cell line [1]; [6],only a very modest cytotoxic effect
same,cytotoxicity,"TFK-1 cell line [1]; 72 hours exposure, 3 μM gemcitabine",about 50%
same,cell killing (>90% level),"EGI-1 cell line [2]; 3 000 nM gemcitabine without PCI, 72 hours",this level of cell killing was not obtained
same,cytotoxic effect,EGI-1 cell line [2]; [6],only a very modest cytotoxic effect
same,sensitivity to gemcitabine (cytotoxicity),"EGI-1 cell line [2]; 72 hours exposure, highest dose employed (up to 3 μM)",insensitive
same,cytotoxic effect,TFK-1 cell line [3]; [7],about 50%
same,effect on cell survival,EGI-1 cell line [4]; [7],no effect on cell survival
same,colony forming ability,"TFK-1 cells; gemcitabine 10 nM, PCI illumination time 140 s",substantial colony formation was observed
same,colony forming ability,TFK-1 cells; gemcitabine 33 nM,some colony formation could be observed
same,colony forming ability,TFK-1 cells; gemcitabine 100 nM,unable to form colonies
same,colony forming ability,TFK-1 cells; gemcitabine 330 nM,unable to form colonies
same,effect on tumour growth,"[5]; gemcitabine 200 mg/kg i.v., PCI: Amphinex 5 mg/kg i.v. + 650 nm 15 J/cm^2",no
same,effect on tumour growth,"[5]; gemcitabine 200 mg/kg i.v., PCI: Amphinex 5 mg/kg i.v. + 650 nm 15 J/cm^2, listed as gemcitabine",neither the photochemical treatment alone (PCI alone) nor gemcitabine alone had a significant effect on tumour growth
same,No. of animals alive at the end of study,[5]; gemcitabine 200 mg/kg,5
same,effect on tumour growth,"[5]; gemcitabine 400 mg/kg i.v., PCI: Amphinex 5 mg/kg i.v. + 650 nm 15 J/cm^2",only a very modest; also recorded: neither the photochemical treatment alone (PCI alone) nor gemcitabine alone (Gemcitabine 400 mg/kg) had a significant effect on tumour growth
same,No. of animals alive at the end of study,[5]; gemcitabine 400 mg/kg,6
Di (monoethanolammonium) meso-tetraphenyl chlorin disulfonate [PCI alone],effect on cell survival,"TFK-1 cell line [3]; photochemical treatment alone, 0.4 μg/ml TPCS2a + blue light",only a modest effect on cell survival
same,cells killed,"EGI-1 cell line [4]; photochemical treatment alone, highest light dose",about 50%
same,colony forming ability,"TFK-1 cells; PCI alone, illumination time 140 s",still had the ability to form colonies
same,No. of animals alive at the end of study,"[5]; Amphinex 5 mg/kg + laser, no gemcitabine",2
same,effect on tumour growth,"[5]; Amphinex 5 mg/kg i.v. + laser 15 J/cm^2, without gemcitabine",virtually no effect; also recorded: neither the photochemical treatment alone (PCI alone) nor gemcitabine alone (Gemcitabine 400 mg/kg) had a significant effect on tumour growth
